From PMC10778626, “Efficacy of Novel Quaternary Ammonium and Phosphonium Salts Differing in Cation Type and Alkyl Chain Length against Antibiotic-Resistant Staphylococcus aureus” (International Journal of Molecular Sciences, 2023)
In brackets after ≈: the same amount, converted by molar mass. Read-outs that look alike come from different tables or passages of the source.

Tests used:
[1] = design: method as in earlier work; conditions: standard mixture for the calibration line; cited from earlier work
S. aureus CECT 976 [2] = tested on: S. aureus CECT 976; design: method as in Abreu et al. [44]; conditions: antibiotics, broth microdilution, ref Abreu et al. [44]; cited from earlier work
S. aureus XU212 = test: MIC/MBC by broth microdilution, S. aureus XU212; assay type: cell-based; conditions: Staphylococcus aureus
Protocol: (§1) S. aureus CECT 976, obtained from the Spanish Type Culture Collection, was used as the standard susceptibility testing control strain. This strain has been previously employed in diverse studies to validate the antimicrobial effects of novel molecules. Additional antibiotic-resistant strains, S. aureus XU212, SA1199B, and RN4220, generously provided by S. Gibbons (University College London, London, UK) were tested. […] The SA1199B strain is characterized by its resistance to fluoroquinolones due to the overexpression of the NorA efflux pump and its ciprofloxacin resistance.
(§2) The minimum inhibitory concentration (MIC) and minimum bactericidal concentration (MBC) values of all QHSs were determined by the broth microdilution method, according to the approved M7-A7 (aerobes) standards of the Clinical and Laboratory Standards Institute (CLSI) guidelines. Overnight cell cultures of S. aureus, in the exponential phase of growth, were adjusted to an optical density (OD) of 0.132 ± 0.02 (λ = 600 nm). Then, a volume of 180 µL of the cell suspension was added to sterile, flat, clear-bottomed polystyrene (PS) 96-well microtiter plates (VWR—Radnor, PA, USA), already containing 20 µL of each QHS under study at concentrations ranging from 0.0625 to 64 µg/mL. In the end, the volume of each compound never exceeded 10% (v/v) of the well volume. Microtiter plates were then incubated for 24 h at 37 °C under agitation (150 rpm; INCU-Line IL 150R incubator). Absorbance measurements were performed at the beginning (t = 0 h) and end (t = 24 h) of the incubation period using a microtiter plate absorbance reader (BMG LABTECH FLUOstar Omega). Bacterial suspensions with DMSO and without QHSs were used as negative controls. […] All tests were performed with six replicates and a minimum of three independent repeats.
(§3) Plates were incubated at 37 °C for 24 h, and growth was visually inspected. The MBC was determined as the lowest concentration of compound in which the total inhibition of growth on solid medium was observed (no colony forming units (CFUs) were detected). All tests were performed in triplicate, and with a minimum of three independent repeats.

S. aureus SA1199B = test: MIC/MBC by broth microdilution, S. aureus SA1199B; assay type: cell-based; conditions: Staphylococcus aureus
Protocol: as §1, §2, §3

S. aureus CECT 976 [3] = test: Quantitative suspension test, dose-response against planktonic bacteria; assay type: cell-based, Staphylococcus aureus; conditions: S. aureus CECT 976; 30 min exposure
Protocol: A quantitative suspension test to explore the dose–response relationships of QHSs by evaluating bactericidal activity was performed. For this method, overnight grown cultures were centrifuged (VWR Mega Star 600R) at 3772× g for 10 min and washed twice with phosphate-buffered saline (PBS; 1.44 g/L of […]—Labkem, Barcelona, Spain; 8 g/L of sodium chloride, 0.2 g/L of potassium chloride, and 0.24 g/L of potassium dihydrogen phosphate—VWR, Leuven, Belgium) at pH 7.4. The collected cells were resuspended in PBS and adjusted to an optical density (OD) of 0.132 ± 0.02 (λ = 600 nm). Afterwards, 100 µL of this cell suspension was aseptically transferred to 800 µL of DW and allowed to stand for 2 min. To this mixture, 100 µL of each QHS solution diluted in DMSO at the desired concentration was added. The dose–response evaluation took place for 30 min at 37 °C. In the case of the negative control (untreated cells), the QHS solution was replaced by an equal volume of DMSO or DW. At the end of the contact time, QHS neutralization was performed through the dilution-neutralization method using a universal neutralizer (1 g/L L-histidine (Merck—Tokyo, Japan), 3 g/L lecithin (Alfa Aesar—Karlsruhe, Germany), 5 g/L sodium thiosulphate (Labkem—Barcelona, Spain), 30 g/L saponin (VWR Chemicals—Leuven, Belgium), and 30 g/L polysorbate 80 (VWR Chemicals—Le Havre, France) in 0.0025 M phosphate buffer). For neutralization, the test blend (100 µL) was added to 800 µL sterile aqueous neutralizing solution and 100 µL of DW. The mixture was gently agitated and allowed to stand for 10 min, after which serial dilutions (up to 10^−5) in sterile saline solution (0.85% w/v NaCl) were prepared. Then, 10 µL of each serial dilution was plated into Petri dishes containing PCA by the drop-plating method. The plates were allowed to set, then inverted and placed in an incubator at 37 °C for 24 h. The surviving cells on the QHS neutralized samples were determined by CFU counting on each plate, ensuring the counting of dilution plates that gave between 10 and 100 CFUs. The antibacterial activity was evaluated by quantification of logarithmic reduction (log CFU/mL), according to Equation (2). log CFU/mL reduction = log (X) − log (X0), (2) where X0 and X are the counts of CFU/mL before (untreated control cells) and after quaternary salt exposure, respectively.
The QHS concentrations chosen for conducting the dose–response tests comprise of the MBC, which causes the complete reduction of planktonic cells, as well as lower concentrations. Specifically, compound 1e was evaluated at concentrations of 0.25, 0.5, 0.75, 1, 2, 4, 8, and 16 µg/mL, compound 7e at concentrations of 1, 2, 3.2, 3.5, 4, 8, and 16 µg/mL, compound 5e at concentrations of 0.5, 1, 1.3, 1.6, 2, 4, and 8 µg/mL, and compound 3e at concentrations of 0.5, 0.75, 1, 1.3, 1.6, 2, 4, and 8 µg/mL. In the case of compounds 2e, 6e, and 4e, concentrations tested were 0.5, 1, 1.6, 2, 4, and 8 µg/mL. All tests were performed in duplicate, and with a minimum of three independent repeats.
The Chick–Watson mathematical model, provided in Equation (3), is considered an adequate approach to validate the kinetics of dose–response data. log X/X0 = − Kdis C^n t (3) where X0 and X are the counts of CFU/mL before and after quaternary salt exposure, respectively; Kdis is a killing rate coefficient ((mL.µg^−1)^n.min^−1); C is the quaternary salt concentration (µg.mL^−1); n is the concentration exponent and t is the exposure time (min). The concentration dependence of killing (n) was determined using a toolbox for linear regression in GraphPad Prism (version 8.4.0, GraphPad Software, La Jolla, CA, USA). The quality of the model was evaluated through the regression coefficient (R^2).

S. aureus RN4220 = test: MIC/MBC by broth microdilution, S. aureus RN4220; assay type: cell-based; conditions: Staphylococcus aureus
Protocol: as §1, §2, §3

S. aureus CECT 976 [4] = test: MIC/MBC by broth microdilution, S. aureus CECT 976; assay type: cell-based; conditions: Staphylococcus aureus
Protocol: as §2
Plates were incubated at 37 °C for 24 h, and growth was visually inspected. […] All tests were performed in triplicate, and with a minimum of three independent repeats.

HepG2 cells = test: Cytotoxicity by neutral red (NR) uptake; assay type: cell-based, human; conditions: HepG2, 24 h
Protocol: The evaluation of the cytotoxicity effects of QHSs was performed using hepatocellular carcinoma (HepG2) cells. […] The cells used for all experiments were taken between the 9th and 13th passages, to avoid phenotypic changes.
The cytotoxicity profile of the compounds under study was evaluated in HepG2 cells (2.5 × 10^5 cells/mL) seeded in 96-well plates. […] Control experiments were performed for viability endpoints by adding the vehicle (medium with 0.1% DMSO) instead of the compound solution.
In the NR uptake assay, following a 24 h incubation period with the test compounds, the cell culture medium was aspirated, and fresh medium containing 150 µL of the dye (at a concentration of […]) was added to the cells. […] After incubation, the cell culture medium was discarded, and a mixture of absolute ethanol and distilled water (1:1) containing 5% acetic acid was added to extract the dye accumulated within the lysosomes of viable cells. The absorbance at 540 nm was measured using a microplate reader (Synergy HTX Multi-Mode Reader—BioTek, Winooski, VT, USA).
For all assays, results are expressed as a percentage of the control (nontreated cells), taken as 100%.

[5] = Chromatographic hydrophobicity index (CHI) by UHPLC; assay type: physicochemical; conditions: for CHI: LC/UV at pH 2.6, calculated from retention time with the calibration line; for chromatographic logP: back-calculated from CHI at pH 2.6: CHI LogP = 0.047 × CHI + 0.36 × HBC − 1.10
Protocol: The chromatographic hydrophobicity index (CHI) values were determined using the retention times (tR) of the samples under study and of a mixture of standard compounds on a UHPLC NEXERA SERIES LC-40 with a Luna C18 (2) column of 150 × 4.6 mm, 5 μm (Phenomenex, Torrance, CA, USA). Stock solutions of the test compounds (10 mM) were prepared in dimethyl sulfoxide (DMSO, 99.9%; Carlo Erba) and diluted in acetonitrile/water (1:1) to obtain a final concentration of 500 μM. The mobile phase A was 1.0% (v/v) aqueous acetic acid solution (pH = 2.6), and the mobile phase B was acetonitrile. The following gradient programme was applied: 1–7 min 0–100% B, 7–17 min 100% B, 17–19 min 100–0% B, 1 mL/min flow; rt, injection volume 40 μL.
A calibration line was obtained using a mixture of the following compounds: benzimidazole, theophylline, paracetamol, caffeine, colchicine, carbamazepine, indole, propiophenone, butyrophenone, valerophenone, and heptanophenone (Table S1 and Figure S50, Supplementary Materials). The experimental CHI values of the compounds tested at pH 2.6 were then converted to the logarithm of octanol/water partition coefficient (CHI LogP) values using Equation (1). CHI LogP = 0.047 × CHI + 0.36 × HBC − 1.10 (1) where HBC is the hydrogen bond donor count.

[6] = CECT976, S. aureus CECT 976, broth microdilution, 24 h, 37 °C, read-out: MIC
[7] = CECT976, S. aureus CECT 976, broth microdilution, plated on PCA, read-out: MBC

SMILES | CHI0 pH 2.6 [1] | MIC (S. aureus CECT 976 [4]; [6]) [µg/mL] | MBC (S. aureus CECT 976 [4]; [7]) [µg/mL] | CHI [5] | chromatographic logP [5] | also measured
CCC(=O)c1ccccc1 [Propiophenone] | 77.40 |  |  |  |  | 
Cn1c(=O)c2c(ncn2C)n(C)c1=O [Caffeine] | 23.41 |  |  |  |  | 
COc1cc2c(c(OC)c1OC)-c1ccc(OC)c(=O)cc1[C@@H](NC(C)=O)CC2 [Colchicine] | 43.90 |  |  |  |  | 
CC(=O)Nc1ccc(O)cc1 [Paracetamol] | 18.77 |  |  |  |  | 
CN(C)[C@@H]1C(O)=C(C(N)=O)C(=O)[C@@]2(O)C(O)=C3C(=O)c4c(O)cccc4[C@@](C)(O)[C@H]3C[C@@H]12 [[TET], tetracycline] |  |  |  |  |  | MIC (S. aureus CECT 976 [2]): 0.96 µg/mL (≈ 2.16 µM)
NC(=O)N1c2ccccc2C=Cc2ccccc21 [Carbamazepine] | 60.42 |  |  |  |  | 
CCCCC(=O)c1ccccc1 [Valerophenone] | 96.40 |  |  |  |  | 
c1ccc2[nH]cnc2c1 [Benzimidazole] | 6.300 |  |  |  |  | 
Cn1c(=O)c2[nH]cnc2n(C)c1=O [Theophylline] | 17.90 |  |  |  |  | 
Cc1onc(-c2ccccc2)c1C(=O)N[C@@H]1C(=O)N2[C@@H]1SC(C)(C)[C@@H]2C(=O)O [[OXA], oxacillin] |  |  |  |  |  | MIC (S. aureus CECT 976 [2]): 0.48 µg/mL (≈ 1.2 µM)
CCCC(=O)c1ccccc1 [Butyrophenone] | 87.30 |  |  |  |  | 
CCCCCCCCCCCCCC[N+](CC)(CC)CC.[Br-] [Compound 7e, N,N,N-Triethyltetradecan-1-aminium bromide] |  | 2 | 16 |  |  | MBC (S. aureus XU212): 32 µg/mL; MIC (S. aureus XU212): 32 µg/mL; MBC (S. aureus SA1199B): 32 µg/mL; MIC (S. aureus SA1199B): 16 µg/mL; concentration inducing reductions in S. aureus log CFU/mL > 5 (S. aureus CECT 976 [3]): 3.4 μg/mL; MBC (S. aureus RN4220): 8 µg/mL; MIC (S. aureus RN4220): 4 µg/mL; NR uptake (lysosomal activity), % of control (HepG2 cells; 2 µg/mL): 86.24 ± 1.502% (****); NR uptake (lysosomal activity), % of control (HepG2 cells; 16 µg/mL): 18.51 ± 2.592% (****); NR uptake (lysosomal activity), % of control (HepG2 cells; 32 µg/mL): 16.59 ± 4.378% (****)
CCCCCCC(=O)c1ccccc1 [Heptanophenone] | 112.1 |  |  |  |  | 
CCCCCC[P+](c1ccccc1)(c1ccccc1)c1ccccc1 [Compound 1a, Hexyltriphenylphosphonium bromide] |  | 8 | > 64 | 60.58 | 1.75 | 
CCCCCCCCCCCCCCCCCC[n+]1cccc2ccccc21.[Br-] [Compound 5g, 1-Octadecylquinolin-1-ium bromide] |  | 16 | 16 | 112.9 | 4.21 | 
CCCCCCCC[n+]1ccn(C)c1.[Br-] [Compound 2b, 1-Methyl-3-octyl-1H-imidazol-3-ium bromide] |  | > 64 | > 64 | 42.19 | 0.883 | 
CCCCCCCCCCCC[P+](c1ccccc1)(c1ccccc1)c1ccccc1 [Compound 1d, Dodecyltriphenylphosphonium bromide] |  |  |  | 94.50 | 3.34 | MBC (S. aureus CECT 976 [4]; CECT976): 16 µg/mL; MIC (S. aureus CECT 976 [4]; CECT976, 24 h): 1 µg/mL
c1ccc2[nH]ccc2c1 [Indole] | 72.10 |  |  |  |  | 
CCCCCCCC[n+]1ccc(C)cc1.[Br-] [Compound 4b, 4-Methyl-1-octylpyridin-1-ium bromide] |  | > 64 | > 64 | 43.90 | 0.963 | 
CCCCCCCCCCCCCCCC[n+]1ccn(C)c1.[Br-] [Compound 2f, 3-Hexadecyl-1-methyl-1H-imidazol-3-ium bromide] |  | 4 | 8 | 95.91 | 3.41 | 
